Measurements: US9567347B2, “Use of small molecule inhibitors targeting the interaction between RAC GTPase and p67(phox)” (CHILDREN'S HOSPITAL MEDICAL CENTER, priority 2012, dated 2017)

How the values were obtained:
[1] = test system: fMLP-activated primary murine neutrophils; assay: Nitroblue tetrazolium (NBT) assay; type: cell-based, mouse; settings: for ROS inhibition (NBT positive cells): 10 μM, FIG. 9
Method: Primary neutrophils from mouse bone marrow were subjected to fMLP stimulation in the presence or absence of various chemicals for 5 min. Cells were stained for NBT activity as previously described in the incorporated materials of Filippi et al. (2004) to reveal relative ROS production.
To complement the DCFDA based FACS analysis and the luminol chemiluminescence method, nitroblue tetrazolium (NBT) assays were performed in fMLP-activated primary murine neutrophils (FIG. 3C).
The NBT assay was performed in primary murine neutrophils to measure ROS neutrophil production. […] Each compound was used at 10 μM.

[2] = test system: primary murine neutrophils; assay: F-actin immunofluorescence, polarization upon fMLP stimulation; type: cell-based, mouse; settings: 200 nM; control 80%
Method: Cells were pretreated with compound for 40 minutes prior to wash, and resuspended in HBSS with compound. Cells were allowed to adhere to fibronectin (Sigma Aldrich) coated glass coverslips (15 min) and then stimulated with 100 nM fMLP (3 min). Coverslips were then fixed with 3.7% paraformaldehyde (Sigma Aldrich) and then staining for […] was performed with rhodamine phalloidin per the manufacturer's instructions (Molecular Probes). Another method of addressing Rac-signaling specificity in neutrophils is by monitoring their ability to polarize actin to the leading edge upon fMLP stimulation. Neither Phox-I1, Phox-I2, nor an analog 13 (all at 10 μM), were able to block the Rac-mediated dynamic process of F-actin polarization to the leading edge of primary murine neutrophils as observed by F-actin immunofluorescence imaging (FIG. 4C, left panel). F-actin polarization was evident in about 80% of each treatment group of cells as in the control, untreated cells (FIG. 4C, right panel).

[3] = test system: LPS-induced ALI in mice; settings: 5 mg/kg i.p. every 8 hours, 24 hours after LPS
Method: FIG. 8. […] Mice were challenged with LPS or vehicle via intratracheal administration and treated or not with compound 100 (indicated as “NOX2-I”; 5 mg/kg, 3 injections every 8 hours). (A) Isoprostane, as an indication of ROS production, was measured in lung homogenates 24 hours following LPS challenge by ELISA. (B) Lung histology was performed 24 hours after LPS challenge. (n=3 mice per group). Representative images of histology are shown.
One life-threatening consequence of hemorrhagic shock is acute lung injury (ALI), which is associated with infiltration of neutrophils and release of ROS. A model of LPS-induced ALI was used in mice to test efficacy of the difluoro compound 100 in vivo.
Mice (N=3 per group) were treated with LPS (100 ng in 80 μl PBS) or PBS (vehicle) employing oral-tracheal intubation. Following challenge, the mice were injected i.p. with 5 mg/kg of compound 100, every 8 hours. The relative level of ROS release in the lungs upon LPS challenge was assessed by measuring 8-isoprostane by ELISA in lung tissue homogenates. Isoprostanes are a family of eicosanoids produced by the oxidation of tissue phospholipids by oxygen radicals. The amount of 8-isoprostane generated is thus an indication of ROS production.

[4] = test system: fMLP-stimulated differentiated HL-60 cells; assay: H2-DCFDA FACS ROS production assay in fMLP-stimulated differentiated HL-60 cells; type: cell-based, human; settings: treated 2 hours, FIG. 5B
Method: HL-60 cells were propagated in RPMI 1640 medium containing 10% heat inactivated fetal bovine serum, 2 mM L-glutamine, 100 U/mL penicillin/streptomycin at 37° C. in air containing 5% CO2. For differentiation, HL-60 cells were cultured in 1.3% dimethyl sulfoxide (DMSO) as previously described (Servant, G., et al. (1999) Mol Biol Cell 10, 1163-1178, hereby incorporated by reference in its entirety). Primary murine neutrophils were isolated from C57Bl/6 mouse bone marrow according to a published protocol (Filippi et al., (2004) Nat Immunol 5, 744-751, hereby incorporated by reference in its entirety) using a discontinuous Percoll (Pharmacia) gradient and were utilized immediately in experiments. Human neutrophils were obtained from fresh blood (IRB #2010-1855, Cincinnati Children's Hospital medical Center) following a well established protocol using density gradient separation from whole blood (Oh et al. (2008) J Vis Exp., 17, pii: 745, hereby incorporated by reference in its entirety).
(§1) Cells (5×10^5) were harvested and processed for Annexin V/7AAD staining according to manufacturer's protocol (Becton Dickinson). Flow cytometry data were acquired on a FACS Canto bench-top flow cytometer (Becton Dickinson) and the cell cycle distributions were determined by […] using Flo-Jo software (Bosco et al (2010) Blood 115, 3320-3328, hereby incorporated by reference in its entirety). For ROS production assay, primary murine neutrophils or dHL60 cells were incubated with compound for 2 hours prior to addition of H2-DCFDA according to manufacturer's instructions (Molecular Probes). Cells were then stimulated with 10 μM fMLP (Sigma), 1 mM CaCl2, and 1.5 mM MgCl2 for 15 minutes prior to wash and FACS analysis for mean fluorescence intensity. Non-fMLP stimulated control values were subtracted from all samples before normalization to fMLP-stimulated, vehicle control treated sample in order to display percent ROS inhibition.
To validate the hits from preliminary screening in cells, several cellular functional assays were performed using different cell types to measure the effect of compounds on inhibition of ROS production. ROS levels were first analyzed by fluorescence-activated cell sorting (FACS) in HL-60 pre-incubated with compounds for 2 hr prior to stimulation of ROS production. The p67^phox inhibitor, Phox-I1, was tested against NAC (a ROS scavenger), DPI (a broad range inhibitor of NADPH oxidase), and NSC23766 (a Rac-GTP inhibitor; FIG. 2A). […] H2O2 added to the cells was included as a positive control for ROS measurement. Second, to test the capacity of Phox-I1 to inhibit ROS production in a primary cell context, primary murine neutrophils isolated from mouse bone marrow were treated with increasing concentrations of Phox-I1 and the efficacy of inhibition of fMLP-stimulated ROS production was analyzed. DPI treatment was included as a positive control for inhibition of ROS production (FIG. 2B). […] Next, to ascertain the optimal effective dose for ROS inhibition in cells, a dose titration series of Phox-I1 was administered to dHL-60 cells (FIG. 2C).

[5] = test system: dHL-60 cells; assay: antioxidant (ROS scavenger) test in dHL-60 cells pre-stimulated with fMLP; type: cell-based, human; settings: fMLP 30 min prior to treatment
Method: (A) Apoptosis analysis by FACS of HL-60 cells treated with compound or vehicle control for 2 hours prior to 7-AAD and Annexin V staining. (B) HL-60 cells from A were harvested and lysates were immunoblotted for levels of pPAK, and actin was used as a control for loading. (C) F-actin reorganization in freshly isolated fMLP-stimulated primary murine neutrophils was analyzed. […] Cells were exposed to a 10 μM dose of Phox-I1, Phox-I2, and Analog 13, and 200 nM nocodazole. (D) The effect of Phox-I on NOX4 mediated ROS production was tested in primary murine neutrophils transfected with a NOX4 expressing plasmid. 10 μM Phox-I1 was applied to the cells for 30 min prior to ROS assay by luminol chemiluminescence in the presence of HRP. The fMLP-stimulated ROS activity in the presence or absence of 10 uM Phox-I1 was measured in parallel. (E) The antioxidant abilities of these lead compounds were tested by prestimulating dHL-60 cells with fMLP for 30 minutes prior to treatment with Phox-I1 or Phox-I2. Levels of superoxide were analyzed by DCFDA assay and FACS. NAC, apocyanin, DPI, and NSC23766 treated cells served as controls. […] (G) For stability assay, DMSO-differentiated HL-60 cells were treated with 20 μM dose of compound for the indicated time period prior to fMLP stimulation and DCFDA ROS production assay by FACS analysis.
Phox-I1 was then applied to primary murine neutrophils expressing the constitutively active NOX4. […] To further rule out that Phox-I1 and Phox-I2 may simply act as scavengers of ROS, dHL-60 cells were pre-stimulated with fMLP for 30 min prior to treatment with Phox-I1 or Phox-I2.

[6] = test system: dHL-60 cells; assay: DCFDA ROS assay after wash and recovery (affinity assay); type: cell-based, human; settings: 2 hr treatment, recovery 4 hr or 2 hr
Method: (A) Apoptosis analysis by FACS of HL-60 cells treated with compound or vehicle control for 2 hours prior to 7-AAD and Annexin V staining. (B) HL-60 cells from A were harvested and lysates were immunoblotted for levels of pPAK, and actin was used as a control for loading. (C) F-actin reorganization in freshly isolated fMLP-stimulated primary murine neutrophils was analyzed. […] Cells were exposed to a 10 μM dose of Phox-I1, Phox-I2, and Analog 13, and 200 nM nocodazole. (D) The effect of Phox-I on NOX4 mediated ROS production was tested in primary murine neutrophils transfected with a NOX4 expressing plasmid. 10 μM Phox-I1 was applied to the cells for 30 min prior to ROS assay by luminol chemiluminescence in the presence of HRP. The fMLP-stimulated ROS activity in the presence or absence of 10 uM Phox-I1 was measured in parallel. (E) The antioxidant abilities of these lead compounds were tested by prestimulating dHL-60 cells with fMLP for 30 minutes prior to treatment with Phox-I1 or Phox-I2. Levels of superoxide were analyzed by DCFDA assay and FACS. NAC, apocyanin, DPI, and NSC23766 treated cells served as controls. (F) For affinity assay, DMSO-differentiated HL-60 cells were treated with standard effective dose of indicated compound for 2 hours, washed, and allowed to recover in normal media for 4 hours or 2 hours prior to fMLP stimulation and DCFDA ROS production assay by FACS analysis. (G) For stability assay, DMSO-differentiated HL-60 cells were treated with 20 μM dose of compound for the indicated time period prior to fMLP stimulation and DCFDA ROS production assay by FACS analysis.
Next, a stability experiment was performed to determine the duration of effectiveness of the compound in suppressing neutrophils. To analyze the relative affinities of these compounds for the p67^phox target in cells, DCFDA ROS production assays were performed in dHL-60 cells treated with compound for 2 hr followed by wash and recovery for 4 hr or 2 hr in normal media prior to ROS production analysis.

[7] = test system: Pak; assay: immunoblot of phosphorylated Pak; type: cell-based, human; settings: 18 hr treatment
Method: Whole-cell lysates were prepared by cell extraction using lysis buffer containing 20 mM Tris-HCl (pH 7.6), 100 mM NaCl, 10 mM MgCl2, 1% Triton X-100, 0.2% sodium deoxycholate, 1 mM phenylmethylsulfonyl fluoride, 10 μg/mL of leupeptin, 1 μg/mL of aprotinin, and 1 mM dithiothreitol for 30 min. Equal amounts of protein, as determined by Bradford assay, were resolved by SDS-PAGE. Specific proteins were detected by standard 9 immunoblotting procedures using the following primary antibodies: (Cell Signaling, 1:500 dilution) phospho-PAK1 (Ser144)/PAK2 (Ser141), (Sigma-Aldrich 1:500) β-Actin.
To analyze the biochemical specificity of these lead inhibitors on the effector pathways of active Rac1, undifferentiated HL-60 cells were treated with Phox-I1, Phox-I2, or NSC23766 for 18 hr. Immunoblot of the cell lysates was performed to probe the activity of Pak, a Rac effector other than p67^phox (FIG. 4B).

[8] = test system: undifferentiated HL-60 cells; assay: apoptosis analysis by FACS (Annexin V / 7-AAD); type: cell-based, human; settings: 20 or 100 μM
Method: as §1
In order to determine potency and cytotoxicity of Phox-I1 and Phox-I2, the levels of apoptosis were assessed in undifferentiated HL-60 cells treated with 20 or 100 μM Phox-I1, Phox-I2, or NSC23766 by FACS analysis for Annexin V (FIG. 4A).

[9] = test system: neutrophils; assay: toxicity to neutrophils; type: cell-based, mouse

Fc1cccc([C@H]2Nc3ccc(F)cc3[C@@H]3OCCC[C@H]23)c1 [Compound 101]
ROS inhibition (NBT positive cells) [1]: highest level of ROS inhibition | ROS inhibition, dose response (NBT) ([1]; 0.1 to 10 μM, FIG. 10): most potent ROS inhibitor

Fc1ccc2c(c1)[C@@H]1C=CC[C@@H]1[C@H](c1cccc(Cl)c1)N2 [Compound 106]
ROS inhibition (NBT positive cells) [1]: highest level of ROS inhibition

COC(=O)Nc1nc2ccc(C(=O)c3cccs3)cc2[nH]1 [Nocodazole, reference compound]
cells with F-actin polarization [2]: ~20%

Fc1cccc(C2Nc3ccc(F)cc3C3C=CCC32)c1 (centres unmarked) [Compound 100]
lung histology: neutrophil infiltration, alveoli wall thickness, lung architecture [3]: attenuated | superoxide inhibition (NBT), Phox-I2 analogs ([1]; FIG. 5C): profound superoxide inhibition | ROS inhibitory activity, Phox-I2 analogs [4]: retain activity

COc1cc(C(C)=O)ccc1O [apocyanin]
levels of superoxide already produced [5]: do not affect

CCN(CC)CCCC(C)Nc1nc(C)cc(Nc2ccc3nc(C)cc(N)c3c2)n1 (centres unmarked) [NSC23766, reference compound]
levels of superoxide already produced [5]: do not affect | ROS inhibition after wash [6]: retained the ability to inhibit ROS production | phosphorylated Pak levels [7]: abrogated | cell apoptosis (Annexin V) [8]: no detectable effect on cell apoptosis

Fc1ccc2c(c1)[C@@H]1C=CC[C@@H]1[C@H](c1ccc(Cl)s1)N2 [Compound 103]
ROS inhibition (NBT positive cells) [1]: highest level of ROS inhibition

Fc1cccc(C2Nc3ccc(F)cc3C3C=CCCC32)c1 (centres unmarked) [Compound 109]
toxicity to neutrophils [9]: toxic to neutrophils

CC(=O)N[C@@H](CS)C(=O)O [NAC, reference compound]
ROS inhibition after wash [6]: retained the ability to inhibit ROS production

c1ccc2c(c1)[I+]c1ccccc1-2 [DPI, diphenyleneiodonium]
levels of superoxide already produced [5]: do not affect

Fc1cccc([C@@H]2Nc3ccc(Br)cc3[C@@H]3C=CC[C@@H]32)c1 [Compound 102]
ROS inhibition (NBT positive cells) [1]: highest level of ROS inhibition
